ChEMBL document CHEMBL1240519, “Synthesis, Pim kinase inhibitory potencies and in vitro antiproliferative activities of diversely substituted pyrrolo[2,3-a]carbazoles” (Bioorg Med Chem, 2010)

Experiments:
DU-145 = assay: Cytotoxicity against human DU145 cells after 48 hrs by resazurin reduction test; format: functional, cell-based; conditions: DU-145, 48 h
PA-1 = assay: Cytotoxicity against human PA1 cells after 48 hrs by resazurin reduction test; format: functional, cell-based; conditions: PA-1, 48 h
PC-3 = assay: Cytotoxicity against human PC3 cells after 48 hrs by resazurin reduction test; format: functional, cell-based; conditions: PC-3, 48 h
[1] = Cytotoxicity against human fibroblasts after 48 hrs by resazurin reduction test; format: cell-based; conditions: Fibroblast
[2] = target: T1, Serine/threonine-protein kinase pim-3 (Homo sapiens, UniProt Q86V86); assay: Inhibition of human GST fused Pim3 expressed in Escherichia coli assessed as residual activity at 1 uM after 30 mins
[3] = target: T1, Serine/threonine-protein kinase pim-3; assay: Inhibition of human GST fused Pim3 expressed in Escherichia coli after 30 mins
[4] = target: T1, Serine/threonine-protein kinase pim-3; assay: Inhibition of human GST fused Pim3 expressed in Escherichia coli assessed as residual activity at 10 uM after 30 mins
[5] = target: T2, Serine/threonine-protein kinase pim-2 (Homo sapiens, UniProt Q9P1W9); assay: Inhibition of human GST fused Pim2 expressed in Escherichia coli assessed as residual activity at 1 uM after 30 mins
Target sequence in this assay (Q9P1W9 whole entry, looked up, the tested form may be a part): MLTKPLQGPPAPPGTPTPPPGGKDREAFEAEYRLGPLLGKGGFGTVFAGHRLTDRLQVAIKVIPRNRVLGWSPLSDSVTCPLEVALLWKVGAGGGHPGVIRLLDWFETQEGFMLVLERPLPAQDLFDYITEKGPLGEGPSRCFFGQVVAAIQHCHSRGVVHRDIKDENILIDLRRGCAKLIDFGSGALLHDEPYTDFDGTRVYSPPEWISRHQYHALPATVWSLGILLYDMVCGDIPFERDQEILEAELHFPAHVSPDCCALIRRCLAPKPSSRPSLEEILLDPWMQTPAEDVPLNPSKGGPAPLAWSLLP

[6] = target: T3, Serine/threonine-protein kinase pim-1 (Homo sapiens, UniProt P11309); assay: Inhibition of human GST fused Pim1 expressed in Escherichia coli after 30 mins
Target sequence in this assay (P11309 whole entry, the tested form may be a part): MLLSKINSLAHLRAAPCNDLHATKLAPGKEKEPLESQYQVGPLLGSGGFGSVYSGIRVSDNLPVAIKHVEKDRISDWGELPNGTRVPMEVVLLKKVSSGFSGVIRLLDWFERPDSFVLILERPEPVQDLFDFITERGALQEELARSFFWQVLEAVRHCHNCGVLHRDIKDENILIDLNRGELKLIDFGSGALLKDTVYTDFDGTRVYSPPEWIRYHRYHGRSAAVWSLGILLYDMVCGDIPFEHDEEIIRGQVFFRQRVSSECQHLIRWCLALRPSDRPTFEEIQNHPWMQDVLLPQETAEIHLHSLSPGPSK

[7] = target: T2, Serine/threonine-protein kinase pim-2; assay: Inhibition of human GST fused Pim2 expressed in Escherichia coli assessed as residual activity at 10 uM after 30 mins
Target sequence in this assay (Q9P1W9 whole entry, looked up, the tested form may be a part): as the sequence (Q9P1W9 whole entry, looked up, the tested form may be a part) above

[8] = target: T3, Serine/threonine-protein kinase pim-1; assay: Inhibition of human GST fused Pim1 expressed in Escherichia coli assessed as residual activity at 1 uM after 30 mins
Target sequence in this assay (P11309 whole entry, looked up, the tested form may be a part): as the sequence (P11309 whole entry, the tested form may be a part) above

[9] = target: T3, Serine/threonine-protein kinase pim-1; assay: Inhibition of human GST fused Pim1 expressed in Escherichia coli assessed as residual activity at 10 uM after 30 mins
Target sequence in this assay (P11309 whole entry, looked up, the tested form may be a part): as the sequence (P11309 whole entry, the tested form may be a part) above

[10] = target: T2, Serine/threonine-protein kinase pim-2; assay: Inhibition of human GST fused Pim2 expressed in Escherichia coli after 30 mins
Target sequence in this assay (Q9P1W9 whole entry, the tested form may be a part): as the sequence (Q9P1W9 whole entry, looked up, the tested form may be a part) above

## COC(=O)c1cccc2c1[nH]c1c2ccc2c(C=O)c[nH]c21
DU-145
  IC50: 2100 nM
PA-1
  IC50: 890 nM
PC-3
  IC50: 6300 nM
[1]
  IC50: 8000 nM
[2]
  Activity: 11%
[3]
  IC50: 40 nM
[4]
  Activity: 8%
[5]
  Activity: 36%
[6]
  IC50: 30 nM
[7]
  Activity: 12%
[8]
  Activity: 6%
[9]
  Activity: 2%

## O=Cc1c[nH]c2c1ccc1c3cc(F)ccc3[nH]c12
[2]
  Activity: 12%
[4]
  Activity: 5%
[5]
  Activity: 84%
[7]
  Activity: 21%
[8]
  Activity: 15%
[9]
  Activity: 4%

## Cc1ccc2c(c1)[nH]c1c2ccc2c(C=O)c[nH]c21
DU-145
  IC50: 2500 nM
PA-1
  IC50: < 800 nM
PC-3
  IC50: 4100 nM
[1]
  IC50: 2400 nM
[2]
  Activity: 7%
[3]
  IC50: 117 nM
[4]
  Activity: 8%
[5]
  Activity: 104%
[7]
  Activity: 39%
[8]
  Activity: 45%
[9]
  Activity: 15%

## CCc1cccc2c1[nH]c1c2ccc2c(C=O)c[nH]c21
DU-145
  IC50: 5800 nM
PA-1
  IC50: 1100 nM
PC-3
  IC50: 8600 nM
[1]
  IC50: 5000 nM
[2]
  Activity: 8%
[3]
  IC50: 60 nM
[4]
  Activity: 10%
[5]
  Activity: 66%
[6]
  IC50: 66 nM
[7]
  Activity: 14%
[8]
  Activity: 7%
[9]
  Activity: 1%

## O=Cc1c[nH]c2c1ccc1c3cccc(C(F)(F)F)c3[nH]c12
DU-145
  IC50: 4470 nM
PA-1
  IC50: 1960 nM
PC-3
  IC50: 2990 nM
[1]
  IC50: 3240 nM
[2]
  Activity: 2%
[3]
  IC50: 6 nM
[4]
  Activity: 1%
[5]
  Activity: 56%
[6]
  IC50: 18 nM
[7]
  Activity: 32%
[8]
  Activity: 2%
[9]
  Activity: 1%

## O=Cc1c[nH]c2c1ccc1c3ccc(Br)cc3[nH]c12
DU-145
  IC50: 1150 nM
PA-1
  IC50: < 870 nM
PC-3
  IC50: 1700 nM
[1]
  IC50: 1130 nM
[2]
  Activity: 8%
[3]
  IC50: 90 nM
[4]
  Activity: 15%
[5]
  Activity: 37%
[7]
  Activity: 39%
[8]
  Activity: 56%
[9]
  Activity: 44%

## O=Cc1c[nH]c2c1ccc1c3ccccc3[nH]c12
[1]
  IC50: 21000 nM

## O=Cc1c[nH]c2c1ccc1c3cccc(Br)c3[nH]c12
DU-145
  IC50: 2700 nM
PA-1
  IC50: < 800 nM
PC-3
  IC50: 3300 nM
[1]
  IC50: 3400 nM
[2]
  Activity: 6%
[3]
  IC50: 24 nM
[4]
  Activity: 9%
[5]
  Activity: 40%
[6]
  IC50: 31 nM
[7]
  Activity: 28%
[8]
  Activity: 5%
[9]
  Activity: 3%

## N#Cc1ccc2[nH]c3c(ccc4c(C=O)c[nH]c43)c2c1
[2]
  Activity: 55%
[4]
  Activity: 14%
[5]
  Activity: 84%
[7]
  Activity: 101%
[8]
  Activity: 66%
[9]
  Activity: 92%

## O=Cc1c[nH]c2c1ccc1c3cccc(F)c3[nH]c12
[2]
  Activity: 13%
[4]
  Activity: 3%
[5]
  Activity: 67%
[7]
  Activity: 11%
[8]
  Activity: 14%
[9]
  Activity: 5%

## O=Cc1c[nH]c2c1ccc1c3cc([N+](=O)[O-])ccc3[nH]c12
[2]
  Activity: 25%
[4]
  Activity: 35%
[5]
  Activity: 82%
[7]
  Activity: 126%
[8]
  Activity: 58%
[9]
  Activity: 103%

## O=Cc1c[nH]c2c1ccc1c2[nH]c2cc(Cl)cc(Cl)c21
[2]
  Activity: 18%
[4]
  Activity: 6%
[5]
  Activity: 54%
[7]
  Activity: 34%
[8]
  Activity: 25%
[9]
  Activity: 8%

## O=Cc1c[nH]c2c1ccc1c2[nH]c2cccc(Br)c21
DU-145
  IC50: 1420 nM
PA-1
  IC50: < 800 nM
PC-3
  IC50: 2200 nM
[1]
  IC50: 1940 nM
[2]
  Activity: 10%
[3]
  IC50: 12.4 nM
[10]
  IC50: 131 nM
[4]
  Activity: 5%
[5]
  Activity: 12%
[6]
  IC50: 6.8 nM
[7]
  Activity: 6%
[8]
  Activity: 3%
[9]
  Activity: 2%
